Key:
[1] = tested on: Wistar rats with hepatic steatosis induced by a choline-deficient diet; experiment: Hydroperoxide (LOOH) concentration in the liver of rats with diet-induced hepatic steatosis; assay type: in vivo; settings: control group 3.2±0.4
Protocol: Wistar rats with hepatic steatosis induced by a choline-deficient diet were assigned to three groups to perform the tests with the administration of S-nitroso-N-acetylcysteine (SNAC), which is one of the active principles of the present invention, and to evaluate the concentration of hydroperoxides (LOOH) in the liver.
A first group of animals, group 1, was treated with a solution of S-nitroso-N-acetylcysteine, which was administrated orally to the animals at a dose of 1.4 mg/kg/day. A second group of animals, group 2, was treated with N-acetylcysteine (NAC), which was also administrated orally to the animals at a dose of 7.0 mg/kg/day.

soy lipoxigenase (SLO) = experiment: Linoleic acid (LA) peroxidation catalyzed by soy lipoxigenase, absorbance at 234 nm; assay type: biochemical
Protocol: This referred effect may be shown by the analysis of two kinetic parameters: initial velocity and extension of the peroxidation reaction until the chemical equilibrium is reached. Such parameters were analyzed by ultraviolet spectrophotometry and the kinetic curves (a′, b′, c′ and d′) were obtained from absorbance variation monitored though the band with peak at 234 nm at a preferential temperature of 37° C. This band value is characteristic for combined dienes and may, therefore, act as LA peroxidation marker. For this Example, the first curve (a′) refers to a sample of linoleic acid whose peroxidation was catalyzed by incubation with soy lipo-oxygenase at a preferential concentration of 0.056 μmol/L; the second curve (b′) refers to a sample of linoleic acid whose peroxidation was catalyzed by incubation of the linoleic acid with a mixture of soy lipo-oxygenase in the presence of NAC at a preferential concentration of 560 μmol/L; the third curve (c′) refers to a sample of linoleic acid whose peroxidation was catalyzed by incubation of soy Lipo-oxygenase in the presence of SNAC at a preferential concentration of 56 μmol/L; and the fourth curve (d′) refers to a sample of linoleic acid whose peroxidation was catalyzed by incubation of soy lipo-oxygenase in the presence of SNAC at a preferential concentration of 560 μmol/L. FIG. 3 illustrates the absorbance curves obtained for the groups of the present Example. The interpretation of the curves is given by the initial velocity, which corresponds to the inclination of the initial section of the curves within approximately 10 seconds, and the extension of the reaction, which corresponds to the absorbance values on the plateaus of the curves.

[2] = tested on: human low density lipoprotein (LDL); experiment: CuCl2-catalyzed oxidation of LDL suspension, fluorescence spectrophotometry; assay type: biochemical; settings: LDL 200 μg/mL, CuCl2 300 μmol/L, 15 hours, SNAC 300 μmol/L, pH 7.4
Protocol: For this example, approximately 15 mL of a human low density lipoprotein (LDL) suspension at a concentration of around 200 μg/mL, in phosphate buffer, pH 7.4, aerated PBS (in vitro) were previously prepared and initially divided into three parts. A first part (a) with approximately 5 mL consisting of the previously prepared suspension solely; a second part (b) with approximately 5 mL, consisting of the LDL suspension incubated in a CuCl2 solution at a preferential concentration of 300 μmol/L for a period of around 15 hours; and a third part (c) with approximately 5 mL, consisting of the LDL suspension incubated in a CuCl2 solution at a preferential concentration of 300 μmol/L for a period of around 15 hours, in the presence of SNAC at a preferential concentration of 300 μmol/L.
A sample of each part was submitted to fluorescence spectrophotometry. FIG. 2 features the emission spectrum for the analyzed samples. […] The 410- and 440-nm emission peaks in the LDL suspension fluorescence spectrum correspond to the formation of a Schiff base adduct between the lipid oxidation products contained in the LDL particles (mainly the malondialdehyde [MDA]) and the free amino groups on LDL apolipoprotein (mainly apo-B-100), and are known as LDL oxidation markers.

[3] = tested on: Rats fed a choline-deficient diet; experiment: Liver histology (hematoxylin and eosin) of rats fed a choline-deficient diet; assay type: in vivo; settings: control: moderate macrovacuolar and microvacuolar steatosis in the periportal zone
Source text: Rats fed a choline-deficient diet were selected to compose the Control Group when compared to SNAC-treated rats. Hematoxylin and eosin-stained histological sections of hepatic tissue were examined under optical microscopy, as shown on FIGS. 5A and 5B.

ob/ob mice = experiment: Liver histology (hematoxylin and eosin) of ob/ob mice on MCD or hyperlipidemic diet; assay type: in vivo
Source text: For the Example 4, ob/ob mice were selected. A first group of mice was fed a methionine/choline-deficient diet (Group MCD) and a second group of mice was fed a hyperlipidemic diet (Group H).
Animals were selected from both groups and hematoxylin and eosin-stained histological sections of the hepatic tissue of these animals were obtained and examined under optical microscopy.
Other animals selected from both groups of mice, Group MCD and Group H, were submitted to a 30-day treatment consisting of SNAC administration. After the 30th day, hematoxylin and eosin-stained histological sections of the hepatic tissue of these animals were obtained and examined under optical microscopy.
The remaining animals in Groups H and MCD were maintained on these diets up the 60th day and were put on SNAC administration from the 31st day on. After the 60th day of treatment, hematoxylin and eosin-stained histological sections of the hepatic tissue of these animals were obtained and examined under optical microscopy.

[4] = Body mass variation of animals on MCD or hyperlipidemic diet; assay type: in vivo; settings: SNAC by gavage, four weeks
Source text: Data are expressed as means±standard deviation.

[5] = NAC 560 μmol/L, LA 18.76 μmol/L, SLO 0.056 μmol/L, 37° C., curve b′
[6] = SNAC 56 μmol/L, reduction compared with NAC 560 μmol/L, curve c′

| extension of the LA peroxidation reaction (soy lipoxigenase (SLO); [5]) | initial velocity of the LA peroxidation reaction (soy lipoxigenase (SLO); [5]) | extension of the LA peroxidation reaction (soy lipoxigenase (SLO); [6]) | initial velocity of the LA peroxidation reaction (soy lipoxigenase (SLO); [6]) | SMILES | hydroperoxide concentration in the liver ([1]; group 2, oral, 7.0 mg/kg/day) | hydroperoxide concentration in the liver ([1]; group 1, oral, 1.4 mg/kg/day) | 410 and 440 nm emission peaks (LDL oxidation markers) [2] | extension of the LA peroxidation reaction (soy lipoxigenase (SLO); SNAC 560 μmol/L, curve d′) | initial velocity of the LA peroxidation reaction (soy lipoxigenase (SLO); SNAC 560 μmol/L, curve d′) | histological characteristics of hepatic tissue [3] | histological characteristics of the liver (ob/ob mice; Group H, diet concomitantly with 30-day SNAC administration) | histological characteristics of the liver (ob/ob mice; Group H, diet to 60th day, SNAC from the 31st to the 60th day) | histological characteristics of the liver (ob/ob mice; Group MCD, diet concomitantly with 30-day SNAC administration) | histological characteristics of the liver (ob/ob mice; Group MCD, diet to 60th day, SNAC from the 31st to the 60th day) | body mass increase ([4]; group H (untreated 28% increase)) | body mass increase ([4]; group MCD) |
| --- | --- | --- | --- | --- | --- | --- | --- | --- | --- | --- | --- | --- | --- | --- | --- | --- |
| reduced the extension | reduced the extension and velocity |  |  | CC(=O)N[C@@H](CS)C(=O)O [NAC, N-acetylcysteine, reference compound] | 0.7±0.2 nmol/g protein |  |  |  |  |  |  |  |  |  |  |  |
|  |  | reduction is more accentuated | reduction is more accentuated | CC(=O)N[C@@H](CSN=O)C(=O)O [SNAC, S-nitroso-N-acetylcysteine] |  | 0.3±0.1 nmol/g protein | blockage of the increase of 410 and 440 nm peaks | reduction is considerably much pronounced | reduction is considerably much pronounced | normal liver in the periportal zone | consistent with normal livers | consistent with those of normal livers | consistent with normal livers | consistent with those of normal livers | remarkable reduction of body mass increase | practically eliminated the body mass increase |

From patent US20100062059A1, “S-Nitrosothiols Containing Composition for the Treatment of Fatty Liver Diseases, Obesity and Other Diseases Associated with the Metabolic Syndrome and the Use of Such Compositions” (PROTAGEN AKTIENGESELLSCHAFT, priority 2006, published 2010)
